From patent US10093683B2, “Factor XIa inhibitors” (Merck Sharp & Dohme Corp., priority 2014, dated 2018)

What was measured:
Human plasma kallikrein = Human plasma kallikrein (Homo sapiens (Human), UniProt P03952); experiment: Kallikrein Assay; assay type: biochemical; settings: purified Human plasma kallikrein 0.5 nM, Acetyl-K-P-R-AFC, pH 7.4; Ki from IC50 by Cheng Prusoff
Description: The effectiveness of a compound of the present invention as an inhibitor of Kallikrein can be determined using a relevant purified serine protease, and an appropriate synthetic substrate. The rate of hydrolysis of the chromogenic or fluorogenic substrate by the relevant serine protease was measured both in the absence and presence of compounds of the present invention. Assays were conducted at room temperature or at 37° C. […] A decrease in the rate of fluorescence change in the presence of inhibitor is indicative of enzyme inhibition. Such methods are known to one skilled in the art. The results of this assay are expressed as the inhibitory constant, Ki.
Kallikrein determinations were made in 50 mM HEPES buffer at pH 7.4 containing 150 mM NaCl, 5 mM CaCl2, and 0.1% PEG 8000 (polyethylene glycol; Fisher Scientific). Determinations were made using purified Human plasma kallikrein at a final concentration of 0.5 nM (Enzyme Research Laboratories) and the synthetic substrate, Acetyl-K-P-R-AFC (Sigma #C6608) at a concentration of […].
Times required to achieve equilibration between enzyme and inhibitor were determined in control experiments. The reactions were performed under linear progress curve conditions and fluorescence increase measured at 405 Ex/510 Em nm. […] IC50 was determined by inflection point from a four parameter logistic curve fit. Ki was calculated using the Cheng Prusoff equation, Ki=IC50/(1+([S]/Km)).

human Factor XIa = human Factor XIa (Homo sapiens (Human), UniProt P03951); experiment: Factor XIa Assay; assay type: biochemical; settings: purified human Factor XIa 40 pM, Z-Gly-Pro-Arg-AFC 100 μM, pH 7.4; read-out: FXIa Ki
Sequence of human Factor XIa (P03951 388-625): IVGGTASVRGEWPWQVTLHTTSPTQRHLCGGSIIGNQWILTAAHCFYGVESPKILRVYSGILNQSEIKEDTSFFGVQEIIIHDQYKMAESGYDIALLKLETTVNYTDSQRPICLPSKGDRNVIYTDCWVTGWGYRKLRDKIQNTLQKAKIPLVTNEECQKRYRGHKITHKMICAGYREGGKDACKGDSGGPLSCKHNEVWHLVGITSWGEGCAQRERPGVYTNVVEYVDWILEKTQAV
Sequence of human Factor XIa (P03951 19-387 partner): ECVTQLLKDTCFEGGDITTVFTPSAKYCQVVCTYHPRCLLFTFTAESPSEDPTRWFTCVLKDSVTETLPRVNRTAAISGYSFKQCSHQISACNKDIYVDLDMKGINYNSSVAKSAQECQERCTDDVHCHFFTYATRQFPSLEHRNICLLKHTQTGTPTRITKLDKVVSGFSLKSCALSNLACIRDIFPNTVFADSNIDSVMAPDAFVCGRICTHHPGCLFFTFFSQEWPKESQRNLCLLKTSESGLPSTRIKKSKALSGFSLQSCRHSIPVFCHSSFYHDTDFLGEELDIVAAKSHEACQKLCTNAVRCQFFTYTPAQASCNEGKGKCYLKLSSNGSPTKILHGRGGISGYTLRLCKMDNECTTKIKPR
Procedure, shortened: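 Ki derived from the dependence of Vo/Vi on inhibitor concentration under a competitive-inhibition model, after pre-equilibration of enzyme and inhibitor. Reaction: 40 pM human FXIa, 100 μM Z-Gly-Pro-Arg-AFC, HEPES 50 mM pH 7.4 with NaCl, CaCl2 and PEG 8000; run at room temperature or 37° C.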

Sequence of Human plasma kallikrein (P03952 391-638): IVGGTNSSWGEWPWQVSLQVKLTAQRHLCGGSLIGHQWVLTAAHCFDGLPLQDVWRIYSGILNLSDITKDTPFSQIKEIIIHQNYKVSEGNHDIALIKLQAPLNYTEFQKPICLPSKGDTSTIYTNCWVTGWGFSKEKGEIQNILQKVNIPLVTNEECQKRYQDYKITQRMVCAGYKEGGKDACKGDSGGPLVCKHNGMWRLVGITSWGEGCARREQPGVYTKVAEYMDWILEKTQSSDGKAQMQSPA
Sequence of Human plasma kallikrein (P03952 20-390 partner): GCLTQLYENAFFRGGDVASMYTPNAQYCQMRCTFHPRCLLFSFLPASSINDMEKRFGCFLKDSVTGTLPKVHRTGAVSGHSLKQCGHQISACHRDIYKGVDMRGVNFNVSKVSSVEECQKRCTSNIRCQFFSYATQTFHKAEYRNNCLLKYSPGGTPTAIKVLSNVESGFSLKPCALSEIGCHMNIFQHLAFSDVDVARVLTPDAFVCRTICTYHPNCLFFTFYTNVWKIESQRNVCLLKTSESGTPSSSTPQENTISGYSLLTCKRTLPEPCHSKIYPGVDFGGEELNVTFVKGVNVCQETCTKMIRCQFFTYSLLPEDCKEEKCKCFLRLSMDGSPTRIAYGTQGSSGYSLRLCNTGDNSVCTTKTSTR

SMILES	Ki (Human plasma kallikrein) [nM]	Ki (human Factor XIa) [nM]
COC(=O)Nc1ccc(C(=O)N[C@@H](Cc2ccccc2)C(=O)N2CC[C@@]3(C2)OC(=O)Nc2ccc(C)cc23)cc1 [Example 14b, methyl (4-(((S)-1-((R)-6-methyl-2-oxo-1,2-dihydrospiro[benzo[d][1,3]oxazine-4,3′-pyrrolidin]-1′-yl)-1-oxo-3-phenylpropan-2-yl)carbamoyl)phenyl)carbamate]	47.8	9.5
COC(=O)Nc1ccc(C(=O)N[C@@H](Cc2ccccc2)C(=O)N2CCC[C@@]3(C2)OC(=O)Nc2ccc(C)cc23)cc1 [Example 15, methyl (4-(((S)-1-((R)-6-methyl-2-oxo-1,2-dihydrospiro[benzo[d][1,3]oxazine-4,3′-piperidin]-1′-yl)-1-oxo-3-phenylpropan-2-yl)carbamoyl)phenyl)carbamate]	2.8	5.5
COC(=O)Nc1ccc(C(=O)N[C@@H](Cc2ccccc2)C(=O)N2CCC[C@@]3(C2)OC(=O)Nc2ccc(C)c(F)c23)cc1 [Example 16, methyl (4-(((S)-1-((R)-5-fluoro-6-methyl-2-oxo-1,2-dihydrospiro[benzo[d][1,3]oxazine-4,3′-piperidin]-1′-yl)-1-oxo-3-phenylpropan-2-yl)carbamoyl)phenyl)carbamate]	1.36	3.85
COC(=O)Nc1ccc(C(=O)N[C@@H](Cc2ccc(F)cc2)C(=O)N2CC[C@@]3(C2)OC(=O)Nc2ccc(Cl)cc23)cc1 [Example 22, methyl (4-(((S)-1-((R)-6-chloro-2-oxo-1,2-dihydrospiro[benzo[d][1,3]oxazine-4,3′-pyrrolidin]-1′-yl)-3-(4-fluorophenyl)-1-oxopropan-2-yl)carbamoyl)phenyl)carbamate]	21.9	5.3
COC(=O)Nc1ccc(C(=O)N[C@@H](Cc2ccc(F)c(F)c2)C(=O)N2CCC3(C2)OC(=O)Nc2ccc(Cl)cc23)cc1 (stereo partly drawn) [Example 27, methyl (4-(((2S)-1-(6-chloro-2-oxo-1,2-dihydrospiro[benzo[d][1,3]oxazine-4,3′-pyrrolidin]-1′-yl)-3-(3,4-difluorophenyl)-1-oxopropan-2-yl)carbamoyl)phenyl)carbamate]	32.6	14.3
COC(=O)Nc1ccc(C(=O)N[C@@H](Cc2cncn2C)C(=O)N2CCC3(C2)OC(=O)Nc2ccc(Cl)cc23)cc1 (stereo partly drawn) [Example 30, methyl (4-(((2S)-1-(6-chloro-2-oxo-1,2-dihydrospiro[benzo[d][1,3]oxazine-4,3′-pyrrolidin]-1′-yl)-3-(1-methyl-1H-imidazol-5-yl)-1-oxopropan-2-yl)carbamoyl)phenyl)carbamate]	37	17.6
COC(=O)Nc1ccc(C(=O)N[C@@H](Cn2cccn2)C(=O)N2CCC3(C2)OC(=O)Nc2ccc(Cl)cc23)cc1 (stereo partly drawn) [Example 31, methyl (4-(((2S)-1-(6-chloro-2-oxo-1,2-dihydrospiro[benzo[d][1,3]oxazine-4,3′-pyrrolidin]-1′-yl)-1-oxo-3-(1H-pyrazol-1-yl)propan-2-yl)carbamoyl)phenyl)carbamate]	77.3	26
COC(=O)Nc1ccc(C(=O)N[C@@H](Cc2ccsc2)C(=O)N2CCC3(C2)OC(=O)Nc2ccc(Cl)cc23)cc1 (stereo partly drawn) [Example 32, methyl (4-(((2S)-1-(6-chloro-2-oxo-1,2-dihydrospiro[benzo[d][1,3]oxazine-4,3′-pyrrolidin]-1′-yl)-1-oxo-3-(thiophen-3-yl)propan-2-yl)carbamoyl)phenyl)carbamate]	42.2	16
COC(=O)Nc1ccc(C(=O)N[C@@H](Cc2ccc(O)cc2)C(=O)N2CCC3(C2)OC(=O)Nc2ccc(Cl)cc23)cc1 (stereo partly drawn) [Example 35, methyl (4-(((2S)-1-(6-chloro-2-oxo-1,2-dihydrospiro[benzo[d][1,3]oxazine-4,3′-pyrrolidin]-1′-yl)-3-(4-hydroxyphenyl)-1-oxopropan-2-yl)carbamoyl)phenyl)carbamate]	24.6	3.28
COCC[C@H](NC(=O)c1ccc(NC(=O)OC)cc1)C(=O)N1CCC[C@@]2(C1)OC(=O)Nc1ccc(Cl)cc12 [Example 37, methyl (4-(((S)-1-((R)-6-chloro-2-oxo-1,2-dihydrospiro[benzo[d][1,3]oxazine-4,3′-piperidin]-1′-yl)-4-methoxy-1-oxobutan-2-yl)carbamoyl)phenyl)carbamate]	2.68	9.21
COC(=O)Nc1ccc(C(=O)N[C@@H](CO)C(=O)N2CCC[C@@]3(C2)OC(=O)Nc2ccc(Cl)cc23)cc1 [Example 38, methyl (4-(((S)-1-((R)-6-chloro-2-oxo-1,2-dihydrospiro[benzo[d][1,3]oxazine-4,3′-piperidin]-1′-yl)-3-hydroxy-1-oxopropan-2-yl)carbamoyl)phenyl)carbamate]	9.45	49.9
COC(=O)Nc1ccc(C(=O)N[C@@H](Cc2ccc(C(=O)c3ccccc3)cc2)C(=O)N2CCC3(C2)OC(=O)Nc2ccc(Cl)cc23)cc1 (stereo partly drawn) [Example 39, methyl (4-(((2S)-3-(4-benzoylphenyl)-1-(6-chloro-2-oxo-1,2-dihydrospiro[benzo[d][1,3]oxazine-4,3′-pyrrolidin]-1′-yl)-1-oxopropan-2-yl)carbamoyl)phenyl)carbamate]	86.6	39.3
COC(=O)Nc1ccc(C(=O)N[C@@H](Cc2cscn2)C(=O)N2CCC3(C2)OC(=O)Nc2ccc(Cl)cc23)cc1 (stereo partly drawn) [Example 40, methyl (4-(((2S)-1-(6-chloro-2-oxo-1,2-dihydrospiro[benzo[d][1,3]oxazine-4,3′-pyrrolidin]-1′-yl)-1-oxo-3-(thiazol-4-yl)propan-2-yl)carbamoyl)phenyl)carbamate]	116	52.4
COC(=O)Nc1ccc(C(=O)N[C@@H](Cc2sccc2F)C(=O)N2CCC3(C2)OC(=O)Nc2ccc(Cl)cc23)cc1 (stereo partly drawn) [Example 43, methyl (4-(((2S)-1-(6-chloro-2-oxo-1,2-dihydrospiro[benzo[d][1,3]oxazine-4,3′-pyrrolidin]-1′-yl)-3-(3-fluorothiophen-2-yl)-1-oxopropan-2-yl)carbamoyl)phenyl)carbamate]	42.5	17.7
COC(=O)Nc1ccc(C(=O)N[C@@H](Cc2ccc(OC3CCCC3)cc2)C(=O)N2CCC3(C2)OC(=O)Nc2ccc(Cl)cc23)cc1 (stereo partly drawn) [Example 44, methyl (4-(((2S)-1-(6-chloro-2-oxo-1,2-dihydrospiro[benzo[d][1,3]oxazine-4,3′-pyrrolidin]-1′-yl)-3-(4-(cyclopentyloxy)phenyl)-1-oxopropan-2-yl)carbamoyl)phenyl)carbamate]	< 1.3	70
COC(=O)Nc1ccc(C(=O)N[C@@H](Cc2ccc(C#N)cc2)C(=O)N2CCC[C@@]3(C2)OC(=O)Nc2ccc(Cl)cc23)cc1 [Example 45, methyl (4-(((S)-1-((R)-6-chloro-2-oxo-1,2-dihydrospiro[benzo[d][1,3]oxazine-4,3′-piperidin]-1′-yl)-3-(4-cyanophenyl)-1-oxopropan-2-yl)carbamoyl)phenyl)carbamate]	< 1.3	5.55
COC(=O)Nc1ccc(C(=O)N[C@@H](Cc2ccc(C(N)=O)cc2)C(=O)N2CCC[C@@]3(C2)OC(=O)Nc2ccc(Cl)cc23)cc1 [Example 47, methyl (4-(((S)-3-(4-carbamoylphenyl)-1-((R)-6-chloro-2-oxo-1,2-dihydrospiro[benzo[d][1,3]oxazine-4,3′-piperidin]-1′-yl)-1-oxopropan-2-yl)carbamoyl)phenyl)carbamate]	< 1.3	0.55
